The subject of series [1] is BALB/cByJNarl mice. The series is described as follows: Complete blood count in Docetaxel mice model. It counts as in vivo. The text has this: (§1) Male BALB/cByJNarl mice (6-8 weeks old) were purchased from National Laboratory Animal Center (NLAC) in Taiwan and randomly divided into four groups, with five mice in Groups Docetaxel+PBS, Docetaxel+FIP-fve and Docetaxel+FIP-gts each and four in Control group. The mice were housed under pathogen-free conditions with a 12-hour light/12-hour dark schedule, and fed an autoclaved diet with ad libitum access to standard rodent chow (Laboratory Rodent Diet 5001, LabDiet, St. Louis, Mo., USA). Three days before the administration of Docetaxel (namely, Day-3), the mice in the Docetaxel+PBS Group started to be fed phosphate-buffered saline (PBS) at 100 μL/animal/day, and the daily feeding of PBS continued throughout the experiment. The mice were injected intravenously in the tail vein with Taxotere® (Aventis Pharma Ltd., Dagenham, UK) at a dose of 30 mg/kg body weight on Days 1, 8 and 15. The Docetaxel+FIP-fve and Docetaxel+FIP-gts Groups were administered Taxotere® at the same dose on the same days as described above. Additionally, the two treatment groups daily received 100 μL PBS added with either 200 μg FIP-fve or 400 μg FIP-gts throughout the experiment starting from Day-3 until the end of the experiment (Day 18). The FIP-gts protein used in this and other Examples disclosed herein was produced according to the method disclosed in WO2005040375A1. The FIP-fve protein used herein was purified from F. velutipes by the method disclosed in Ko J. L., Eur. J. Biochem. 1995; 228:244-249. The mice of the Control Group were given with PBS alone at 100 μL/animal/day without being injected with anti-cancer agent. Blood was sampled from the orbital sinus of the mice on days 4, 11 and 18 for subsequent analysis. The animals were sacrificed by CO2 asphyxiation on day 18. The protocol of the experiment is illustrated in FIG. 1.

Series [2] relates to BALB/cByJNarl mice. Briefly: Structural integrity of jejunal villus, H&E histology, Docetaxel mice model. The format is in vivo. To be noted: mice jejunum, FIG. 2A/2B. The text has this: (§2) Male BALB/cByJNarl mice (6-8 weeks old) were purchased from National Laboratory Animal Center (NLAC) in Taiwan and randomly divided into four groups, with five mice in Groups Docetaxel+PBS, Docetaxel+FIP-fve and Docetaxel+FIP-gts each and four in Control group. The mice were housed under pathogen-free conditions with a 12-hour light/12-hour dark schedule, and fed an autoclaved diet with ad libitum access to standard rodent chow (Laboratory Rodent Diet 5001, LabDiet, St. Louis, Mo., USA). Three days before the administration of Docetaxel (namely, Day-3), the mice in the Docetaxel+PBS Group started to be fed phosphate-buffered saline (PBS) at 100 μL/animal/day, and the daily feeding of PBS continued throughout the experiment. The mice were injected intravenously in the tail vein with Taxotere® (Aventis Pharma Ltd., Dagenham, UK) at a dose of 30 mg/kg body weight on Days 1, 8 and 15. The Docetaxel+FIP-fve and Docetaxel+FIP-gts Groups were administered Taxotere® at the same dose on the same days as described above. […]
Intestinal samples from the jejunum of the sacrificed mice were fixed in 10% formalin and embedded in paraffin wax. […] The histological images of villi appeared in the intestinal samples are shown in FIG. 2A, and the lengths of villi measured by an NIS-Elements D 3.2 image analysis system (Nikon, Japan) were shown in FIG. 2B.

For series [3], the system named is BALB/cByJNarl mice. Briefly: Micro CT of tibia, trabecular bone micro-architecture, Docetaxel mice model. To be noted: for porosity of knee, distal femur and proximal tibia samples, in words: FIG. 3B/3C, versus the mice group injected with Docetaxel alone. It counts as in vivo.
Excerpt: as §1
Tibiae were separated from right hind limbs of the mice and defleshed. Afterwards, individual tibiae were placed into 15 mL Falcons conical centrifuge tubes (Becton, Dickinson and Company, Franklin Lakes, N.J., USA) and covered with 70% ethanol. The tibia samples were sent to the Taiwan Mouse Clinic, funded by the National Research Program for Biopharmaceuticals (NRPB) of the National Science Council (NSC) in Taiwan, where the samples were scanned by applying three-dimensional micro-computed tomography (micro CT) in a high-resolution low-dose X-ray scanner (SkyScan 1076, Aartselaar, Belgium) and assessed for trabecular bone micro-architecture. For histological analysis, some tibia samples were demineralized in 10% EDTA for two weeks, dehydrated in graded ethanol solutions and embedded in paraffin wax using a Leica ASP300S tissue processor (Leica Microsystems Nussloch GmbH). Deparaffinized sections were stained with hematoxylin and eosin (H&E staining) and then observed under microscope.

The subject of series [4] is BALB/cByJNarl mice. Briefly: Bone marrow adipogenesis in tibia, H&E histology, Docetaxel mice model. It counts as in vivo. To be noted: FIG. 4A/4B, compared to the Control.
Excerpt: as §2, with “15.” for “15. The Docetaxel+FIP-fve and Docetaxel+FIP-gts Groups were administered Taxotere® at the same dose on the same days as described above.”
Tibiae were separated from right hind limbs of the mice and defleshed. […] The tibia samples were sent to the Taiwan Mouse Clinic, funded by the National Research Program for Biopharmaceuticals (NRPB) of the National Science Council (NSC) in Taiwan, where the samples were scanned by applying three-dimensional micro-computed tomography (micro CT) in a high-resolution low-dose X-ray scanner (SkyScan 1076, Aartselaar, Belgium) and assessed for trabecular bone micro-architecture. […]

Series [5] deals with human patients with stage III or IV lung cancer. The series is described as follows: Clinical study: FIP-gts tablets with Taxotere and cisplatin/carboplatin. The settings on record: columns = course days; for Hb: in g/dL (unit assumed); for Cr.: in mg/dL (unit assumed). Set-up: key to ECOG: 0: Asymptomatic (Fully active, able to carry on all pre-disease activities without restriction); 1: Symptomatic but completely ambulatory (Restricted in physically strenuous activity but ambulatory and able to carry out work of a light or sedentary nature. For example, light housework, office work); 2: Symptomatic, <50% in bed during the day (Ambulatory and capable of all self care but unable to carry out any work activities. Up and about more than 50% of waking hours); 3: Symptomatic, >50% in bed, but not bedbound (Capable of only limited self-care, confined to bed or chair 50% or more of waking hours); 4: Bedbound (Completely disabled. Cannot carry on any self-care. Totally confined to bed or chair); 5: Death. It counts as in vivo. Here is the method:
The inventors further conducted a clinical study on diminished quality of life (QOL) and cancer-related fatigue (CRF) caused by chemotherapy. The QOL and CRF of selected human patients were evaluated by the Eastern Cooperative Oncology Group (ECOG) Performance Status Scale from 0 to 5 (Oken M. M., et al., Am. J. Clin. Oncol.; 1982, 5(6): 649-55), where each grade represents:
Five human patients with stage III or IV lung cancer were enrolled in this study. During the study, each patient was administered Taxotere® at either a low dose of 20-30 mg/m^2 or a high dose of 60-69 mg/m^2 in conjunction with cisplatin/carboplatin on the designated days as prescribed by the physician, and received daily two tablets of FIP-gts (3 mg/tablet). The patients were asked to come back to the hospital on the designated days for follow up at the clinic and collection of blood samples. The patients were assessed for quality of life and fatigue according to the ECOG performance status system described above. The medical records of the five patients, as well as the administration regimens for the patients, were illustrated in Tables III.A-III.E below.

For the next series, the system named is human lymphocytes. To be noted: 3H-thymidine, compared to PHA; cited from earlier work.
The mark [6] stands for this setting: Docetaxel 30 mg/kg i.v. Days 1, 8, 15, daily FIP-fve 200 μg or FIP-gts 400 μg in 100 μL PBS from Day -3, Day 18.
[7] abbreviates: mice tibia, micro CT, Day 18, Docetaxel 30 mg/kg i.v., FIP-fve 200 μg or FIP-gts 400 μg daily.
[8] abbreviates: Patient Case 3, Taxotere + cisplatin + daily FIP-gts, chemotherapy course 1, April.
Setting [9] is: Patient Case 3, Taxotere + cisplatin + daily FIP-gts, chemotherapy course 2, May 10.
The mark [10] stands for this setting: Patient Case 3, Taxotere + cisplatin + daily FIP-gts, chemotherapy course 3, May.
[11] abbreviates: Patient Case 4, low dose Taxotere + cisplatin/carboplatin + daily FIP-gts.
Setting [12] is: Patient Case 4, low dose Taxotere + cisplatin/carboplatin + daily FIP-gts, in U/L (unit assumed).

Values joined by “and” are separate entries in the source; they are usually repeats but may differ in a detail not shown here. Equal values may be shown once.

Turning to `CC(=O)O[C@@]12CO[C@@H]1C[C@H](O)[C@@]1(C)C(=O)[C@H](O)C3=C(C)[C@@H](OC(=O)[C@H](O)[C@@H](NC(=O)OC(C)(C)C)c4ccccc4)C[C@@](O)([C@@H](OC(=O)c4ccccc4)[C@H]21)C3(C)C` [Docetaxel, (2R,3S)-N-carboxy-3-phenylisoserine, N-tert-butyl ester, 13-ester with 5, 20-epoxy-1,2,4,7, 10, 13-hexahydroxytax-11-en-9-one 4-acetate 2-benzoate, trihydrate], in the series with BALB/cByJNarl mice [1] (setting [6]), the HCT worked out at 39.94 ± 1.19%, the HGB is 11.77 ± 0.31 g/dL, the MCH turned out to be 15.00 ± 0.16 pg and the MCHC came to 29.48 ± 0.05 g/dL. For the same molecule, in the series with BALB/cByJNarl mice [1] (setting [6]), the MCV amounted to 50.82 ± 0.49 fL, the MPV is 6.71 ± 0.17 fL, the PLT was 317.88 ± 60.27 10^3/μL and the RBC is listed as 7.86 ± 0.24 ×10^6/μL. In the series on BALB/cByJNarl mice [1] (setting [6]), the RDW was determined as 29.26 ± 0.73 fL and the WBC was 3.29 ± 0.80 ×10^3/μL. Besides, in the series on BALB/cByJNarl mice [1] (Docetaxel alone compared with the Control group), the “levels of white blood cells (WBC), red blood cells (RBC), hemoglobin (HGB), hematocrit (HCT) and platelets (PLT), in words” value is listed as “considerable reduction”. The “structural integrity of villi, in words” value in the series with BALB/cByJNarl mice [2] was “severely damaged and blunted”. Besides, in the series on BALB/cByJNarl mice [3] (setting [7]), the “Bone surface density BS/TV” value was 3.852 1/U, the “Percent bone volume BV/TV” value is 5.634%, the “Structure model index SMI” value worked out at 2.1757 and the “Trabecular number Tb.N” value is listed as 0.8566 1/U. In addition, in the series with BALB/cByJNarl mice [3] (setting [7]), the “Trabecular separation Tb.Sp” value is on record as 0.5623 U and the “Trabecular thickness Tb.Th” value was determined as 0.06577 U. In the series on BALB/cByJNarl mice [3] (micro CT, FIG. 3A, compared to the Control Group), the “structural integrity of the tibia, in words” value is listed as “much more osteo-porous than the Control”. Moreover, in the series on BALB/cByJNarl mice [3] (tibia samples, from trabecular number, percent bone volume, trabecular separation), the “Docetaxel-induced osteoporosis, in words” value was “induction of osteoporosis”. For the same molecule, the “adipogenesis in tibia bone marrow, in words” value in the series with BALB/cByJNarl mice [4] is on record as “increase in marrow adipose tissue”.
Turning to “FIP-gts: fungal immunomodulatory protein of Ganoderma tsugae, SEQ ID NO: 1, produced according to WO2005040375A1; 3 mg tablets in the clinical study”, the “WBC level, in words” value in the series on BALB/cByJNarl mice [1] (co-treatment with Docetaxel) was “remarkably restored the WBC level to its control value”. The “porosity of knee, distal femur and proximal tibia samples, in words” value in the series on BALB/cByJNarl mice [3] (micro CT) is on record as “considerably less porous”. Also, the ECOG was 1 in series [5] (Patient Case 1, Taxotere + cisplatin/carboplatin + daily FIP-gts); 1 in series [5] (Patient Case 2, Taxotere + cisplatin/carboplatin + daily FIP-gts); 0 in series [5] (Patient Case 3, Taxotere + cisplatin + daily FIP-gts); 1 in series [5] (setting [11]); 0 in series [5] (Patient Case 5, low dose Taxotere + cisplatin + daily FIP-gts). Besides, the AST was 14 in series [5] (Patient Case 3, Taxotere + cisplatin + daily FIP-gts, in U/L (unit assumed), chemotherapy course 1, April); 13 in series [5] (Patient Case 3, Taxotere + cisplatin + daily FIP-gts, in U/L (unit assumed), chemotherapy course 2, May 10); 15 in series [5] (Patient Case 3, Taxotere + cisplatin + daily FIP-gts, in U/L (unit assumed), chemotherapy course 3, May); 18 and 13 and 15 in series [5] (setting [12]). For the same molecule, the Hb in series [5] (setting [8]) was 14.9; in series [5] (setting [9]) it was 13.9; in series [5] (setting [10]), 12; in series [5] (setting [11]), 11.2 and 10 and 8.6 and 9.5 and 9.6 and 8.9. Also, the Cr. in series [5] (setting [8]) is 1.09; in series [5] (setting [9]), 0.94; in series [5] (setting [10]) it was 0.86; in series [5] (setting [11]), 0.8 and 0.89 and 1.15. In addition, the ALT in series [5] (setting [12]) was 10 and 9. Besides, the “concentration sufficient to reach the maximum proliferation of human lymphocytes” value in the series on human lymphocytes is 5 µg/mL.

B1: FIP-fve: fungal immunomodulatory protein purified from F. velutipes, SEQ ID NO: 2 (protein)
chain: SATSLTFQLAYLVKKIDFDYTPNWGRGTPSSYIDNLTFPKVLTDKKYSYRVVVNGSDLGVESNFAVTPSGGQTINFLQYNKGYGVADTKTIQVFVVIPDTGNSEEYIIAEWKKT
modifications: Flammulina Velutipes
As to B1, the “HGB and PLT levels, in words” value with BALB/cByJNarl mice [1] (reduction caused by Docetaxel) was “lessened the reduction”. Further, the “porosity of knee, distal femur and proximal tibia samples, in words” value in the series with BALB/cByJNarl mice [3] (micro CT) is “considerably less porous”. For the same molecule, the “concentration sufficient to reach the maximum proliferation of human lymphocytes” value in the series with human lymphocytes is 100 µg/mL.

The values above are taken from patent US10493126B2, “Combination therapy for ameliorating adverse side effects caused by chemotherapy” (YEASTERN BIOTECH CO., LTD, priority 2014, dated 2019).
